Assay results taken from patent US20100168421A1, “A NEW PEPTIDE DEFORMYLASE INHIBITOR COMPOUND AND MANUFACTURING PROCESS THEREOF” (priority 2007, published 2010).
Converted amounts (≈) assume the structure as drawn. Like-named read-outs stand apart in the source and are kept apart here.

What was measured:
Format in all cases: cell-based
[1] = test system: Streptococcus pyogenes; experiment: MIC microdilution, S. pyogenes; details: read-out: MIC Streptococcus pyogenes
Description: (§1) Minimum inhibitory concentrations (MICs) were determined using the microdilution method in 96-well format plates. Each of the compounds of Examples was dissolved in dimethyl sulfoxide to a concentration of 2 mg/mL and stored at 4° C. until used. They were diluted in Mueller-Hinton Broth (MHB) and used for MIC determination. The range of concentrations tested was […] final concentration using a two-fold dilution system. Plates were incubated at 37° C. and MIC were recorded after 24 hours of incubation for bacteria.
(§2) Linezolid and vancomycin were used as standard antibiotics, respectively.

[2] = test system: Vancomycin-resistant Enterococcus faecium; experiment: MIC microdilution, VR E. faecium; details: read-out: MIC Vancomycin-resistant Enterococcus faecium
Description: as §1, §2

[3] = test system: Vancomycin-resistant Enterococcus faecalis; experiment: MIC microdilution, VR E. faecalis; details: read-out: MIC Vancomycin-resistant Enterococcus faecalis
Description: as §1, §2

[4] = test system: Streptococcus Pneumoniae Pen NS; experiment: MIC microdilution, S. Pneumoniae Pen NS; details: read-out: MIC Streptococcus Pneumoniae Pen NS
Description: as §1, §2

[5] = test system: Streptococcus Pneumoniae Pen S; experiment: MIC microdilution, S. Pneumoniae Pen S; details: read-out: MIC Streptococcus Pneumoniae Pen S
Description: as §1, §2

[6] = microdilution, Mueller-Hinton Broth, 37° C., 24 hours

CC(C)(C)[C@H](NC(=O)[C@H](CC1CCCC1)CN(O)C=O)C(=O)N1CCC(NCc2ccc(C#N)cc2)CC1 [Example 3, (R)-N-{(S)-1-[4-(4-Cyano-benzylamino)-piperidine-1-carbonyl]-2,2-dimethyl-propyl}-2-cyclopentylmethyl-3-(formyl-hydroxy-amino)-propionamide]
MIC [1, 6]: 0.2 µg/mL (≈ 0.38 µM)
MIC [2, 6]: 0.4 µg/mL (≈ 0.761 µM)
MIC [3, 6]: 0.8 µg/mL (≈ 1.52 µM)
MIC [4, 6]: 0.4 µg/mL (≈ 0.761 µM)
MIC [5, 6]: 0.1 µg/mL (≈ 0.19 µM)

CC(C)(C)[C@H](NC(=O)[C@H](CC1CCCC1)CN(O)C=O)C(=O)N1CCC(NCc2ccc(F)cc2)CC1 [Example 4, (R)-2-Cyclopentylmethyl-N-{(S)-1-[4-(4-fluoro-benzylamino)-piperidine-1-carbonyl]-2,2-dimethyl-propyl}-3-(formyl-hydroxy-amino)-propionamide]
MIC [1, 6]: 0.4 µg/mL (≈ 0.771 µM)
MIC [2, 6]: 0.4 µg/mL (≈ 0.771 µM)
MIC [3, 6]: 3.1 µg/mL (≈ 5.98 µM)
MIC [4, 6]: 0.4 µg/mL (≈ 0.771 µM)
MIC [5, 6]: 0.2 µg/mL (≈ 0.386 µM)

COC(=O)c1ccc(CNC2CCN(C(=O)[C@@H](NC(=O)[C@H](CC3CCCC3)CN(O)C=O)C(C)(C)C)CC2)cc1 [Example 7, 4-[(1-{(S)-2-[(R)-2-Cyclopentylmethyl-3-(formyl-hydroxy-amino)-propionylamino]-3,3-dimethyl-butyryl}-piperidin-4-ylamino)-methyl]-benzoic acid methyl ester]
MIC [1, 6]: 0.8 µg/mL (≈ 1.43 µM)
MIC [2, 6]: 3.1 µg/mL (≈ 5.55 µM)
MIC [3, 6]: 6.3 µg/mL (≈ 11.3 µM)
MIC [4, 6]: 1.6 µg/mL (≈ 2.86 µM)
MIC [5, 6]: 0.4 µg/mL (≈ 0.716 µM)

CC(C)(C)[C@H](NC(=O)[C@H](CC1CCCC1)CN(O)C=O)C(=O)N1CCC(NCc2ccccn2)CC1 [Example 9, (R)-2-Cyclopentylmethyl-N-((S)-2,2-dimethyl-1-{4-[(pyridine-2-ylmethyl)-amino]-piperidine-1-carbonyl}-propyl)-3-(formyl-hydroxy-amino)-propionamide]
MIC [1, 6]: 0.8 µg/mL (≈ 1.59 µM)
MIC [2, 6]: 12.5 µg/mL (≈ 24.9 µM)
MIC [3, 6]: 12.5 µg/mL (≈ 24.9 µM)
MIC [4, 6]: 1.6 µg/mL (≈ 3.19 µM)
MIC [5, 6]: 1.6 µg/mL (≈ 3.19 µM)

COc1ccc(CNC2CCN(C(=O)[C@@H](NC(=O)[C@H](CC3CCCC3)CN(O)C=O)C(C)(C)C)CC2)c(OC)c1 [Example 12, (R)-2-Cyclopentylmethyl-N-{(S)-1-[4-(2,4-dimethoxy-benzylamino)-piperidine-1-carbonyl]-2,2-dimethyl-propyl}-3-(formyl-hydroxy-amino)-propionamide]
MIC [1, 6]: 0.2 µg/mL (≈ 0.357 µM)
MIC [2, 6]: 3.1 µg/mL (≈ 5.53 µM)
MIC [3, 6]: 6.3 µg/mL (≈ 11.2 µM)
MIC [4, 6]: 0.8 µg/mL (≈ 1.43 µM)
MIC [5, 6]: 0.2 µg/mL (≈ 0.357 µM)

CC(C)(C)[C@H](NC(=O)[C@H](CC1CCCC1)CN(O)C=O)C(=O)N1CCC(NCc2cc(F)c(F)cc2F)CC1 [Example 14, (R)-2-Cyclopentylmethyl-N-{(S)-2,2-dimethyl-1-[4-(2,4,5-trifluoro-benzylamino)-piperidine-1-carbonyl]-propyl}-3-(formyl-hydroxy-amino)-propionamide]
MIC [1, 6]: 0.1 µg/mL (≈ 0.18 µM)
MIC [2, 6]: 0.2 µg/mL (≈ 0.361 µM)
MIC [3, 6]: 1.6 µg/mL (≈ 2.88 µM)
MIC [4, 6]: 0.4 µg/mL (≈ 0.721 µM)
MIC [5, 6]: 0.1 µg/mL (≈ 0.18 µM)

CC(C)(C)[C@H](NC(=O)[C@H](CC1CCCC1)CN(O)C=O)C(=O)N1CCC(Nc2ccccc2)CC1 [Example 15, (R)-2-Cyclopentylmethyl-N-[(S)-2,2-dimethyl-1-(4-phenylamino-piperidine-1-carbonyl)-propyl]-3-(formyl-hydroxy-amino)-propionamide]
MIC ([1]; 24 h): 0.1 µg/mL (≈ 0.205 µM)
MIC ([2]; 24 h): 0.4 µg/mL (≈ 0.822 µM)
MIC ([3]; 24 h): 1.6 µg/mL (≈ 3.29 µM)
MIC ([4]; 24 h): 0.4 µg/mL (≈ 0.822 µM)
MIC ([5]; 24 h): 0.1 µg/mL (≈ 0.205 µM)

CC(C)(C)[C@H](NC(=O)[C@H](CC1CCCC1)CN(O)C=O)C(=O)N1CCC(Nc2ccc(C#N)cc2)CC1 [Example 16, (R)-N-{(S)-1-[4-(4-Cyano-phenylamino)-piperidine-1-carbonyl]-2,2-dimethyl-propyl}-2-cyclopentylmethyl-3-(formyl-hydroxy-amino)-propionamide]
MIC [1, 6]: 0.1 µg/mL (≈ 0.195 µM)
MIC [2, 6]: 0.4 µg/mL (≈ 0.782 µM)
MIC [3, 6]: 3.1 µg/mL (≈ 6.06 µM)
MIC [4, 6]: 1.6 µg/mL (≈ 3.13 µM)
MIC [5, 6]: 0.1 µg/mL (≈ 0.195 µM)

Cc1ccc(NC2CCN(C(=O)[C@@H](NC(=O)[C@H](CC3CCCC3)CN(O)C=O)C(C)(C)C)CC2)cc1 [Example 18, (R)-2-Cyclopentylmethyl-N-[(S)-2,2-dimethyl-1-(4-p-tolylamino-piperidine-1-carbonyl)-propyl]-3-(formyl-hydroxy-amino)-propionamide]
MIC [1, 6]: 0.1 µg/mL (≈ 0.2 µM)
MIC [2, 6]: 0.4 µg/mL (≈ 0.799 µM)
MIC [3, 6]: 3.1 µg/mL (≈ 6.19 µM)
MIC [4, 6]: 0.4 µg/mL (≈ 0.799 µM)
MIC [5, 6]: 0.2 µg/mL (≈ 0.399 µM)

COc1ccc(NC2CCN(C(=O)[C@@H](NC(=O)[C@H](CC3CCCC3)CN(O)C=O)C(C)(C)C)CC2)cc1 [Example 19, (R)-2-Cyclopentylmethyl-3-(formyl-hydroxy-amino)-N-{(S)-1-[4-(4-methoxy-phenylamino)-piperidine-1-carbonyl]-2,2-dimethyl-propyl}-propionamide]
MIC [1, 6]: 0.2 µg/mL (≈ 0.387 µM)
MIC [2, 6]: 1.6 µg/mL (≈ 3.1 µM)
MIC [3, 6]: 3.1 µg/mL (≈ 6 µM)
MIC [4, 6]: 0.2 µg/mL (≈ 0.387 µM)
MIC [5, 6]: 0.4 µg/mL (≈ 0.774 µM)

COC(=O)c1ccc(NC2CCN(C(=O)[C@@H](NC(=O)[C@H](CC3CCCC3)CN(O)C=O)C(C)(C)C)CC2)cc1 [Example 21, 4-(1-[(S)-2-[(R)-2-Cyclopentylmethyl-3-(formyl-hydroxy-amino)-propionylamino]-3,3-dimethyl-butyryl]-piperidin-4-ylamino)-benzoic acid methyl ester]
MIC [1, 6]: 0.4 µg/mL (≈ 0.734 µM)
MIC [2, 6]: 1.6 µg/mL (≈ 2.94 µM)
MIC [3, 6]: 6.3 µg/mL (≈ 11.6 µM)
MIC [4, 6]: 0.8 µg/mL (≈ 1.47 µM)
MIC [5, 6]: 0.2 µg/mL (≈ 0.367 µM)

CC(C)(C)[C@H](NC(=O)[C@H](CC1CCCC1)CN(O)C=O)C(=O)N1CCC(Nc2ccc(F)cc2F)CC1 [Example 23, (R)-2-Cyclopentylmethyl-N-{(S)-1-[4-(2,4-difluoro-phenylamino)-piperidine-1-carbonyl]-2,2-dimethyl-propyl}-3-(formyl-hydroxy-amino)-propionamide]
MIC ([1]; 24 h): 0.1 µg/mL (≈ 0.191 µM)
MIC ([2]; 24 h): 0.2 µg/mL (≈ 0.383 µM)
MIC ([3]; 24 h): 3.1 µg/mL (≈ 5.93 µM)
MIC ([4]; 24 h): 0.2 µg/mL (≈ 0.383 µM)
MIC ([5]; 24 h): 0.05 µg/mL (≈ 0.0957 µM)

COc1ccc(NC2CCN(C(=O)[C@@H](NC(=O)[C@H](CC3CCCC3)CN(O)C=O)C(C)(C)C)CC2)c(OC)c1 [Example 24, (R)-2-Cyclopentylmethyl-N-{(S)-1-[4-(2,4-dimethoxy-phenylamino)-piperidine-1-carbonyl]-2,2-dimethyl-propyl}-3-(formyl-hydroxy-amino)-propionamide]
MIC [1, 6]: 0.1 µg/mL (≈ 0.183 µM)
MIC [2, 6]: 0.8 µg/mL (≈ 1.46 µM)
MIC [3, 6]: 6.3 µg/mL (≈ 11.5 µM)
MIC [4, 6]: 0.4 µg/mL (≈ 0.732 µM)
MIC [5, 6]: 0.2 µg/mL (≈ 0.366 µM)

CC(C)(C)[C@H](NC(=O)[C@H](CC1CCCC1)CN(O)C=O)C(=O)N1CCC(Nc2ccc(N3CCOCC3)c(F)c2)CC1 [Example 25, (R)-2-Cyclopentylmethyl-N-{(S)-1-[4-(3-fluoro-4-morpholin-4-yl-phenylamino)-piperidine-1-carbonyl]-2,2-dimethyl-propyl}-3-(formyl-hydroxy-amino)-propionamide]
MIC [1, 6]: 0.8 µg/mL (≈ 1.36 µM)
MIC [2, 6]: 3.1 µg/mL (≈ 5.26 µM)
MIC [3, 6]: 12.5 µg/mL (≈ 21.2 µM)
MIC [4, 6]: 1.6 µg/mL (≈ 2.71 µM)
MIC [5, 6]: 0.4 µg/mL (≈ 0.678 µM)

CC(=O)NC[C@H]1CN(c2ccc(N3CCOCC3)c(F)c2)C(=O)O1 [Linezolid, reference compound]
MIC [1, 6]: 0.8 µg/mL (≈ 2.37 µM)
MIC [2, 6]: 1.6 µg/mL (≈ 4.74 µM)
MIC [3, 6]: 0.8 µg/mL (≈ 2.37 µM)
MIC [4, 6]: 0.8 µg/mL (≈ 2.37 µM)
MIC [5, 6]: 0.8 µg/mL (≈ 2.37 µM)

CN[C@H](CC(C)C)C(=O)N[C@H]1C(=O)N[C@@H](CC(N)=O)C(=O)N[C@H]2C(=O)N[C@H]3C(=O)N[C@H](C(=O)N[C@H](C(=O)O)c4cc(O)cc(O)c4-c4cc3ccc4O)[C@H](O)c3ccc(c(Cl)c3)Oc3cc2cc(c3O[C@@H]2O[C@H](CO)[C@@H](O)[C@H](O)[C@H]2O[C@H]2C[C@](C)(N)[C@H](O)[C@H](C)O2)Oc2ccc(cc2Cl)[C@H]1O [Vancomycin, reference compound]
MIC ([1]; 24 h): 0.4 µg/mL (≈ 0.276 µM)
MIC ([2]; 24 h): > 50 µg/mL
MIC ([3]; 24 h): > 50 µg/mL
MIC ([4]; 24 h): 0.4 µg/mL (≈ 0.276 µM)
MIC ([5]; 24 h): 0.2 µg/mL (≈ 0.138 µM)
